Marks after values point to notes of the source that are not given here.
Assay: log P by HPLC on reversed-phase column (C 18), acidic range
Assay type: physicochemical
Description: Temperature: 43° C. […] The log P values given in Table 3 were determined in accordance with EEC Directive 79/831 Annex V.A8 by HPLC (High Performance Liquid Chromatography) on a reversed-phase column (C 18). Temperature: 43° C. […] The log P values given in Tables 4 were determined in accordance with EEC Directive 79/831 Annex V.A8 by HPLC (High Performance Liquid Chromatography) on a reversed-phase column (C 18). Temperature: 43° C.

Row | logP | SMILES
1 | logP = 3.85^a) | CCn1ncc(C(=O)c2ccc(C(F)(F)F)cc2Cn2nc(SC)n(C)c2=O)c1OCc1cccc(C(F)(F)F)c1 [ID-44]
2 | logP = 3.19^a) | CCn1ncc(C(=O)c2ccc(C(F)(F)F)cc2Cn2nc(SC)n(C)c2=O)c1OCC(=O)c1ccccc1 [ID-45]
3 | logP = 3.47^a) | CCn1ncc(C(=O)c2ccc(C(F)(F)F)cc2Cn2nc(SC)n(C)c2=O)c1OCC(=O)c1ccc(C)cc1 [ID-46]
4 | logP = 3.64^a) | CCn1ncc(C(=O)c2ccc(C(F)(F)F)cc2Cn2nc(SC)n(C)c2=O)c1OCC(=O)c1ccc(Cl)cc1 [ID-47]
5 | logP = 1.41^a) | CN1CCN(Cc2c(Cl)ccc(C(=O)c3cnn(C)c3O)c2Cl)C1=O [ID-50]
6 | logP = 1.38^a) | Cc1nn(C)c(O)c1C(=O)c1ccc(Cl)c(CN2CCN(C)C2=O)c1Cl [ID-51]
7 | logP = 1.56^a) | CCn1nc(C)c(C(=O)c2ccc(Cl)c(CN3CCN(C)C3=O)c2Cl)c1O [ID-52]
8 | logP = 2.79^a) | Cc1nn(C(C)(C)C)c(O)c1C(=O)c1ccc(Cl)c(CN2CCN(C)C2=O)c1Cl [ID-53]
9 | logP = 1.62^a) | CCN1CCN(Cc2c(Cl)ccc(C(=O)c3cnn(C)c3O)c2Cl)C1=O [ID-54]
10 | logP = 1.57^a) | CCN1CCN(Cc2c(Cl)ccc(C(=O)c3c(C)nn(C)c3O)c2Cl)C1=O [ID-55]
11 | logP = 1.88^a) | CCN1CCN(Cc2c(Cl)ccc(C(=O)c3cnn(CC)c3O)c2Cl)C1=O [ID-56]
12 | logP = 1.79^a) | CCN1CCN(Cc2c(Cl)ccc(C(=O)c3c(C)nn(CC)c3O)c2Cl)C1=O [ID-57]
13 | logP = 3.15^a) | CCN1CCN(Cc2c(Cl)ccc(C(=O)c3c(C)nn(C(C)(C)C)c3O)c2Cl)C1=O [ID-58]
14 | logP = 2.27^a) | COC(=O)c1ccc(Cl)c(Cn2nc(SC)n(C)c2=O)c1Cl [IV-3]
15 | logP = 2.38^a) | CCOc1nn(Cc2c(Cl)ccc(C(=O)OC)c2Cl)c(=O)n1C [IV-4]
16 | logP = 2.55^a) | COC(=O)c1ccc(Cl)c(Cn2nc(C3CC3)n(C3CC3)c2=O)c1Cl [IV-5]
17 | logP = 2.04^a) | COC(=O)c1ccc(Cl)c(Cn2nc(OC)n(C)c2=O)c1Cl [IV-6]
18 | logP = 2.73^a) | COC(=O)c1ccc(Cl)c(Cn2nc(OC(C)C)n(C)c2=O)c1Cl [IV-7]
19 | logP = 2.72^a) | COC(=O)c1ccc(Cl)c(Cn2nc(OCC(F)(F)F)n(C)c2=O)c1Cl [IV-8]
20 | logP = 2.18^a) | COC(=O)c1ccc(Cl)c(Cn2nc(Br)n(C)c2=O)c1Cl [IV-9]
21 | logP = 1.55^a) | COC(=O)c1ccc(Cl)c(Cn2ncn(C)c2=O)c1Cl [IV-10]

Row | logP | SMILES
22 | logP = 2.16^a) | COC(=O)c1ccc(Cl)c(Cn2nc(C3CC3)n(C)c2=O)c1Cl [IV-11]
23 | logP = 2.11^a) | COC(=O)c1ccc(Cl)c(Cn2nc(N(C)C)n(C)c2=O)c1Cl [IV-12]
24 | logP = 1.65^a) | COC(=O)c1ccc(Cl)c(Cn2nc(C)n(C)c2=O)c1Cl [IV-13]
25 | logP = 1.86^a) | COC(=O)c1ccc(Cl)c(Cn2nc3n(c2=O)CCCC3)c1Cl [IV-14]
26 | logP = 2.36^a) | COC(=O)c1ccc(Cl)c(Cn2nc(OC)n(C3CC3)c2=O)c1Cl [IV-15]
27 | logP = 2.73^a) | CCOc1nn(Cc2c(Cl)ccc(C(=O)OC)c2Cl)c(=O)n1C1CC1 [IV-16]
28 | logP = 3.08^a) | COC(=O)c1ccc(Cl)c(Cn2nc(OC(C)C)n(C3CC3)c2=O)c1Cl [IV-17]
29 | logP = 3.05^a) | COC(=O)c1ccc(Cl)c(Cn2nc(OCC(F)(F)F)n(C3CC3)c2=O)c1Cl [IV-18]
30 | logP = 2.70^a) | COC(=O)c1ccc(Cl)c(Cn2nc(SC)n(C3CC3)c2=O)c1Cl [IV-19]
31 | logP = 1.97^a) | COC(=O)c1ccc(Cl)c(Cn2nc(C)n(C3CC3)c2=O)c1Cl [IV-20]
32 | logP = 2.42^a) | COC(=O)c1ccc(Cl)c(Cn2nc(N(C)C)n(C3CC3)c2=O)c1Cl [IV-21]
33 | logP = 2.58^a) | CCOn1c(CC)nn(Cc2c(Cl)ccc(C(=O)OC)c2Cl)c1=O [IV-22]
34 | logP = 1.98^a) | COC(=O)c1ccc(Cl)c(CN2CCN(C)C2=O)c1Cl [IV-23]
35 | logP = 2.07^a) | COC(=O)c1ccc(Cl)c(CN2CCCN(C)C2=O)c1Cl [IV-24]
36 | logP = 2.94^a) | COC(=O)c1ccc(Cl)c(CN2C(=O)c3ccccc3S2(=O)=O)c1Cl [IV-25]
37 | logP = 1.53^a) | CCOC(=O)c1ccc(S(C)(=O)=O)cc1CN1C(=O)CCC1=O [IV-33]
38 | logP = 3.24^a) | CCOC(=O)c1ccc(Br)cc1Cn1nc(CC)n(OCC)c1=O [IV-34]
39 | logP = 3.40^a) | CCOC(=O)c1ccc(Br)cc1Cn1nc(C(F)(F)F)n(C)c1=O [IV-35]
40 | logP = 2.41^a) | CCOC(=O)c1ccc(F)c(Cn2nc(Br)n(C)c2=O)c1 [IV-36]
41 | logP = 2.45^a) | CCOC(=O)c1ccc(F)cc1Cn1nc(SC)n(C)c1=O [IV-37]

Further lines, the molecule ahead of its results:

Row | SMILES | logP
42 | Cc1nn(C(C)(C)C)c(O)c1C(=O)c1ccc(Cl)c(CN2CCCN(C)C2=O)c1Cl [ID-6] | logP = 3.01^a)
43 | CCn1ncc(C(=O)c2ccc(C(F)(F)F)cc2Cn2nc(SC)sc2=O)c1O [ID-7] | logP = 2.98^a)
44 | CCn1ncc(C(=O)c2ccc(C(F)(F)F)cc2Cn2cc(Cl)cc(Cl)c2=O)c1O [ID-8] | logP = 2.75^a)
45 | CCOc1nn(Cc2cc(C(F)(F)F)ccc2C(=O)c2cnn(CC)c2OS(=O)(=O)c2ccc(C)cc2)c(=O)n1C [ID-9] | logP = 3.82^a)
46 | CCn1ncc(C(=O)c2ccc(C(F)(F)F)cc2Cn2nc(SC)n(C)c2=O)c1OS(=O)(=O)c1ccc(C)cc1 [ID-10] | logP = 3.73^a)
47 | CCOc1nn(Cc2cc(C(F)(F)F)ccc2C(=O)c2cnn(CC)c2OS(C)(=O)=O)c(=O)n1C [ID-11] | logP = 3.25^a)
48 | CCn1ncc(C(=O)c2ccc(C(F)(F)F)cc2Cn2nc(SC)n(C)c2=O)c1OS(C)(=O)=O [ID-12] | logP = 2.82^a)
49 | CCOc1nn(Cc2cc(C(F)(F)F)ccc2C(=O)c2cnn(CC)c2OC)c(=O)n1C [ID-13] | logP = 2.74^a)
50 | CCOc1c(C(=O)c2ccc(C(F)(F)F)cc2Cn2nc(OCC)n(C)c2=O)cnn1CC [ID-14] | logP = 2.82^a)
51 | CCOc1nn(Cc2cc(C(F)(F)F)ccc2C(=O)c2cnn(CC)c2OC(C)C)c(=O)n1C [ID-15] | logP = 3.11^a)
52 | C=CCOc1c(C(=O)c2ccc(C(F)(F)F)cc2Cn2nc(OCC)n(C)c2=O)cnn1CC [ID-16] | logP = 2.99^a)
53 | CCOc1nn(Cc2cc(C(F)(F)F)ccc2C(=O)c2cnn(CC)c2OCc2ccccc2)c(=O)n1C [ID-17] | logP = 3.45^a)
54 | CCOc1nn(Cc2cc(C(F)(F)F)ccc2C(=O)c2cnn(CC)c2OCc2ccc(C)cc2)c(=O)n1C [ID-18] | logP = 3.79^a)
55 | CCOc1nn(Cc2cc(C(F)(F)F)ccc2C(=O)c2cnn(CC)c2OCc2ccc(Br)cc2)c(=O)n1C [ID-19] | logP = 3.97^a)
56 | CCOc1nn(Cc2cc(C(F)(F)F)ccc2C(=O)c2cnn(CC)c2OCc2ccc(C#N)cc2)c(=O)n1C [ID-20] | logP = 3.12^a)
57 | CCOc1nn(Cc2cc(C(F)(F)F)ccc2C(=O)c2cnn(CC)c2OCc2ccc(F)cc2)c(=O)n1C [ID-21] | logP = 3.49^a)
58 | CCOc1nn(Cc2cc(C(F)(F)F)ccc2C(=O)c2cnn(CC)c2OCc2ccc(Cl)cc2)c(=O)n1C [ID-22] | logP = 3.85^a)
59 | CCOc1nn(Cc2cc(C(F)(F)F)ccc2C(=O)c2cnn(CC)c2OCc2ccc(Cl)c(Cl)c2)c(=O)n1C [ID-23] | logP = 4.26^a)

Row | SMILES | logP
60 | CCOc1nn(Cc2cc(C(F)(F)F)ccc2C(=O)c2cnn(CC)c2OCc2cccc(Cl)c2)c(=O)n1C [ID-24] | logP = 3.84^a)
61 | CCOc1nn(Cc2cc(C(F)(F)F)ccc2C(=O)c2cnn(CC)c2OCc2ccc([N+](=O)[O-])cc2)c(=O)n1C [ID-25] | logP = 3.33^a)
62 | CCOc1nn(Cc2cc(C(F)(F)F)ccc2C(=O)c2cnn(CC)c2OCc2ccc(C(F)(F)F)cc2)c(=O)n1C [ID-26] | logP = 3.98^a)
63 | CCOc1nn(Cc2cc(C(F)(F)F)ccc2C(=O)c2cnn(CC)c2OCc2cccc(C(F)(F)F)c2)c(=O)n1C [ID-27] | logP = 3.94^a)
64 | CCn1ncc(C(=O)c2ccc(C(F)(F)F)cc2Cn2nc(SC)n(C)c2=O)c1OC [ID-30] | logP = 2.65^a)
65 | CCOc1c(C(=O)c2ccc(C(F)(F)F)cc2Cn2nc(SC)n(C)c2=O)cnn1CC [ID-31] | logP = 2.71^a)
66 | CCn1ncc(C(=O)c2ccc(C(F)(F)F)cc2Cn2nc(SC)n(C)c2=O)c1OC(C)C [ID-32] | logP = 3.00^a)
67 | C=CCOc1c(C(=O)c2ccc(C(F)(F)F)cc2Cn2nc(SC)n(C)c2=O)cnn1CC [ID-33] | logP = 2.89^a)
68 | CCn1ncc(C(=O)c2ccc(C(F)(F)F)cc2Cn2nc(SC)n(C)c2=O)c1OCc1ccccc1 [ID-34] | logP = 3.37^a)
69 | CCn1ncc(C(=O)c2ccc(C(F)(F)F)cc2Cn2nc(SC)n(C)c2=O)c1OCc1ccc(C)cc1 [ID-35] | logP = 3.71^a)
70 | CCn1ncc(C(=O)c2ccc(C(F)(F)F)cc2Cn2nc(SC)n(C)c2=O)c1OCc1ccc(Br)cc1 [ID-36] | logP = 3.89^a)
71 | CCn1ncc(C(=O)c2ccc(C(F)(F)F)cc2Cn2nc(SC)n(C)c2=O)c1OCc1ccc(C#N)cc1 [ID-37] | logP =3.06^a)
72 | CCn1ncc(C(=O)c2ccc(C(F)(F)F)cc2Cn2nc(SC)n(C)c2=O)c1OCc1ccc(F)cc1 [ID-38] | logP = 3.41^a)
73 | CCn1ncc(C(=O)c2ccc(C(F)(F)F)cc2Cn2nc(SC)n(C)c2=O)c1OCc1ccc(Cl)cc1 [ID-39] | logP = 3.78^a)
74 | CCn1ncc(C(=O)c2ccc(C(F)(F)F)cc2Cn2nc(SC)n(C)c2=O)c1OCc1ccc(Cl)c(Cl)c1 [ID-40] | logP = 4.17^a)
75 | CCn1ncc(C(=O)c2ccc(C(F)(F)F)cc2Cn2nc(SC)n(C)c2=O)c1OCc1cccc(Cl)c1 [ID-41] | logP = 3.76^a)
76 | CCn1ncc(C(=O)c2ccc(C(F)(F)F)cc2Cn2nc(SC)n(C)c2=O)c1OCc1ccc([N+](=O)[O-])cc1 [ID-42] | logP = 3.26^a)
77 | CCn1ncc(C(=O)c2ccc(C(F)(F)F)cc2Cn2nc(SC)n(C)c2=O)c1OCc1ccc(C(F)(F)F)cc1 [ID-43] | logP = 3.89^a)
